Data on 65 compounds can be found in ChEMBL document CHEMBL1287791, “In silico identification and biochemical evaluation of novel inhibitors of NRH:quinone oxidoreductase 2 (NQO2)” (Bioorg Med Chem Lett, 2010).

As usually defined, the IC50 is the point on the concentration scale where inhibition reaches its midpoint.

Test [1] deals with T1, Ribosyldihydronicotinamide dehydrogenase [quinone] (Homo sapiens) (UniProt P16083).
T1 sequence (whole entry): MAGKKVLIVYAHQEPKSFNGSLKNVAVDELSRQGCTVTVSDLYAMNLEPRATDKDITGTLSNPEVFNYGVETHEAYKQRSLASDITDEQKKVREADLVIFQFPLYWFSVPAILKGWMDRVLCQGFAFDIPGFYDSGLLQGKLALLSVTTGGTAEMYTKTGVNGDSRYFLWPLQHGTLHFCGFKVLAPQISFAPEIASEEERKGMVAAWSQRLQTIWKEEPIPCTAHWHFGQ
In words: Inhibition of human recombinant NQO2 at 100 uM.

The target in test [2] is T2, Ribosyldihydronicotinamide dehydrogenase [quinone] (Homo sapiens, UniProt P16083).
T2 sequence (P16083 whole entry): T1 sequence (whole entry)
The test can be described thus: Inhibition of human recombinant NQO2.

For test [3], the target named is NAD(P)H dehydrogenase [quinone] 1 (Homo sapiens, UniProt P15559). The test can be described thus: Inhibition of human recombinant NQO1.

Active and inactive are the calls of the source. No rule for the calls is given here.

Chain of NAD(P)H dehydrogenase [quinone] 1 (P15559 whole entry): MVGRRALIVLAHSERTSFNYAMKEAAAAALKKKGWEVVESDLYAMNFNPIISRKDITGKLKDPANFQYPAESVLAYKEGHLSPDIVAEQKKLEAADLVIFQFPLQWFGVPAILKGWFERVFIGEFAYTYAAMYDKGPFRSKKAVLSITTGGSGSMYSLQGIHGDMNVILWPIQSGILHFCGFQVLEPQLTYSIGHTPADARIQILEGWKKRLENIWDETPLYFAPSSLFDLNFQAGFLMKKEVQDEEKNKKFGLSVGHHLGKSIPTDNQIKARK

With `Oc1cc(O)c2ccccc2c1`, the inhibition entry in test [1] is “inactive”. Also, in test [2], the IC50 was found to be 3.3 µM.
Regarding `Cc1nc(-n2nc(-c3ccccc3)cc2-c2ccccc2)sc1C(=O)/C=C/c1cccc([N+](=O)[O-])c1`, the IC50 in test [2] worked out at 6.5 µM.
As to `Cc1ccc(C(=N)c2ccccc2Cc2cccc3ccccc23)c2ccccc12`, the inhibition entry in test [1] was “inactive”.
For the compound `Clc1ccc(-c2cn3c(nc4ccccc43)c(-c3ccccc3)n2)cc1`, the inhibition result in test [1] is “inactive”.
Same read-out and setting: with `O=[N+]([O-])c1ccc(-n2nc3ccc4c(no[n+]4[O-])c3n2)cc1` the entry was “inactive”.
In the case of `Cc1ccc(/C=C/C(=O)c2sc(-n3nc(-c4ccccc4)cc3-c3ccccc3)nc2C)cc1`, in test [2], the IC50 came out at 3.2 µM.
Consider `N=C(N)c1ccc(/N=N/c2cc(/C=C/c3ccccc3)ccc2O)cc1`, for which the inhibition entry in test [1] was “inactive”. In addition, the IC50 in test [2] turned out to be 1.4 µM.
Take `Cc1ccc(-c2cn3c(nc4ccccc43)c(-c3ccccc3)n2)cc1`: the inhibition entry in test [1] was “inactive”.
With `COc1cc(NC(C)CCCN)c2ncccc2c1` (stereo not drawn) [PRIMAQUINE], in test [1], the inhibition entry is “inactive”. Further, the IC50 in test [2] amounted to 7.5 µM.
For `Cn1c2ccccc2c2c3ccc[n+](C)c3ccc21`, the inhibition entry in test [1] was “inactive”. In test [2], the IC50 is 5.5 µM.
As to `CCN(CC)CCCC(C)Nc1ccnc2cc(Cl)ccc12` (stereo not drawn) [CHLOROQUINE], the inhibition entry in test [1] was “inactive”. In test [2], the IC50 was 1.5 µM.
Consider `Cc1ccc2c(c1)-c1c3c(nn1-c1ccccc1)-c1ccccc1SC3O2` (stereo not drawn), for which the inhibition entry in test [1] is “inactive”.
Turning to `CN(CCc1ccccn1)c1ccc2c(c1)Cc1ccccc1-2`, the inhibition result in test [1] was “inactive”.
Consider `O=[N+]([O-])c1ccc(/C=C/c2cc(-c3ccccc3)nc3ccc4ccccc4c23)cc1`, for which, in test [1], the inhibition result was “inactive”. In addition, in test [2], the IC50 came out at 9.6 µM.
Regarding `c1ccc(/N=C2\SC(=NNc3ccccc3)S\C2=N/c2ccccc2)cc1`, the inhibition entry in test [1] is “inactive”.
Regarding `COc1cc2cc(-c3cc(OC)c(OC)c(OC)c3)c3c(c2cc1OC)CNC3`, the inhibition entry in test [1] was “inactive”. Moreover, the IC50 in test [2] came to 2.7 µM.
For `COc1cc2cc(-c3cc(OC)c(OC)c(OC)c3)c3c(c2cc1OC)CNC3=O`, in that order: “inactive” and 2 µM.
As to `Fc1ccc2c(c1)SC1Oc3ccccc3-c3c1c-2nn3-c1ccccc1` (stereo not drawn), the inhibition entry in test [1] was “inactive”.
For the compound `CCN(CC)CCNC(=O)c1c2c(nc3ccccc13)CCCC2`, the inhibition result in test [1] was “inactive”.
`Fc1ccccc1C1CC(c2ccc3ccccc3c2)=Nc2ccccc2S1` (stereo not drawn): the IC50 in test [3] worked out at 0.39 µM.
Consider `c1ccc2cc(-c3cc(-c4cc(-c5ccc6ccccc6c5)on4)no3)ccc2c1`, for which the inhibition entry in test [1] is “inactive”.
With `COc1ccc(/C(C#N)=C\c2cc(OC)c(OC)c(OC)c2)cc1`, the IC50 was determined as 40 µM in test [3] and 20 µM in test [2].
On to `CN1CC(c2ccccc2)=CC2=C1C=CC(=N)/C2=N\N`, for which, in test [1], the inhibition result is “inactive”. In addition, the half-maximal inhibitory concentration (IC50) in test [2] stood at 2 µM.
As to `O=[N+]([O-])c1ccc(N/N=C/c2c(Cl)n(-c3ccccc3)c3ccccc23)c([N+](=O)[O-])c1`, the inhibition entry in test [1] is “inactive”.
Take `C#CCN(Cc1ccc2nc(-c3ccccc3)c(Cl)nc2c1)c1cc(OC)c(OC)c(OC)c1`: the inhibition result in test [1] was “inactive”.
In the case of `COc1cc(/C=C/c2ccc(OC)c(O)c2)cc(OC)c1`, the IC50 in test [2] came out at 15 µM.
Turning to `c1ccc2c3ccn4ccc5c6ccccc6[nH]c5c4c-3nc2c1`, the inhibition result in test [1] is “inactive”. Besides, the half-maximal inhibitory concentration (IC50) in test [2] turned out to be 2.9 µM.
As for `COc1ccc(/C(Cl)=C(/C=O)c2cc(OC)c(OC)c(OC)c2)cc1OC`, the inhibition result in test [1] was “inactive”. For the same compound, the IC50 in test [2] is 22 µM.
As to `CN(C)c1ccc(/C=c2\c3ccccc3n3c2cc(-c2ccccc2)[n+]3C)cc1`, the inhibition entry in test [1] was “inactive”. Also, the half-maximal inhibitory concentration (IC50) in test [2] amounted to 1.7 µM.
With `Clc1ccc2nc3c(c(-c4ccccc4)nn3-c3ccccc3)c(-c3ccccc3)c2c1`, in test [1], the inhibition entry was “inactive”.
As to `Oc1ccc2ccccc2c1/N=N/c1ccc(F)cc1`, in test [1], the inhibition entry was “inactive”.
For the compound `Cc1nc(-n2nc(-c3ccccc3)cc2-c2ccccc2)sc1C(=O)/C=C/c1ccc(Cl)cc1`, in test [2], the half-maximal inhibitory concentration (IC50) came out at 5.3 µM.
On to `c1ccc2c(-c3ccsc3)c3c(ccc4ccccc43)cc2c1`, for which the inhibition entry in test [1] was “inactive”. In addition, the IC50 in test [2] was found to be 5.1 µM.
Regarding `Oc1ccccc1C(=NNc1ccccc1)c1ccccc1O`, the results for the IC50 in test [3] and in test [2] were 3 µM and 3.9 µM, respectively.
`Clc1ccc(-c2nc3ccc4ccccc4c3c3c2CCCC3)cc1`: in test [1], the inhibition entry is “inactive”.
Regarding `CC(=O)CCNc1ccc(-c2cc(-c3ccc(N(C)C)cc3)nc3ccc4ccccc4c23)cc1`, the inhibition result in test [1] was “inactive”.
As to `CCN1/C(=C/c2ccc3ccccc3[n+]2CC)C=Cc2ccccc21`, the inhibition result in test [1] is “inactive”. Moreover, in test [2], the IC50 is 2.7 µM.
With `CN(C)c1ccc(NN=C2SC(=N\c3ccccc3)/C(=N/c3ccccc3)S2)cc1`, the inhibition result in test [1] is “inactive”.
Regarding `N=C(N)c1ccc(/N=N/c2cc(/N=N/c3ccccc3)ccc2O)cc1`, the inhibition entry in test [1] was “inactive”. The IC50 in test [2] stood at 1.8 µM.
`C(=N\NC1=NCCN1)/c1c2ccccc2c(/C=N/NC2=NCCN2)c2ccccc12`: the inhibition entry in test [1] was “inactive”.
For `Oc1ccc(-c2ccc(O)cc2O)c(O)c1`, the inhibition entry in test [1] is “inactive”.
For the compound `CN(C)c1ccc(/C=c2\c3cc([N+](=O)[O-])ccc3n3c2cc(-c2ccccc2)[n+]3C)cc1`, the inhibition result in test [1] is “inactive”. For the same compound, the IC50 in test [2] is 5 µM.
Regarding `O=C(NCCc1ccccc1)c1ccc2ccccc2n1`, the inhibition result in test [1] is “inactive”.
Turning to `Cc1c2ccnc(-c3ccccc3)c2cc2c1[nH]c1ccccc12`, the inhibition entry in test [1] is “inactive”. Besides, the concentration for half-maximal inhibition (IC50) in test [2] is 2.1 µM.
As for `c1ccc2sc(-c3c4ccccc4cc4ccc5ccccc5c34)cc2c1`, the IC50 in test [3] was 1.1 µM; in test [2], 6 µM.
In the case of `Oc1cc(O)cc(-c2c(O)cc(O)cc2O)c1`, the half-maximal inhibitory concentration (IC50) in test [3] amounted to 10 µM.
Consider `Cc1cc(NCCCCCCNc2cc(C)nc3ccc(N)cc23)c2cc(N)ccc2n1`, for which, in test [1], the inhibition result is “inactive”. Besides, the half-inhibitory concentration (IC50) in test [2] was 1.9 µM.
`Cc1nc(-n2nc(-c3ccccc3)cc2-c2ccccc2)sc1C(=O)/C=C/c1ccc(Cl)c(Cl)c1`: the 50% inhibitory concentration (IC50) in test [2] amounted to 4.9 µM.
Regarding `O=C(C(=O)c1cc(-c2ccccc2)nc2ccc3ccccc3c12)c1ccccc1`, the inhibition result in test [1] is “inactive”.
`Cc1nc(-n2nc(-c3ccccc3)cc2-c2ccccc2)sc1C(=O)/C=C/c1ccccc1`: the IC50 in test [2] came to 5.8 µM.
`Cc1cc2c(ccc3c2ccc[n+]3C)[nH]1`: in test [1], the inhibition result is “inactive”. Besides, the IC50 in test [2] is 2.1 µM.
As to `C1=c2ccccc2=C2C(=C(c3ccccc3)C(c3ccccc3)=NN2c2ccccc2)S1`, the inhibition result in test [1] was “inactive”.
`N=C(N)c1ccc(/N=N/c2c(O)c(C(=O)Nc3ccccc3)cc3ccccc23)cc1`: the inhibition result in test [1] was “inactive”. For the same compound, the IC50 in test [2] stood at 6 µM.
Regarding `CC(/C=C/C(=O)c1sc(-n2nc(-c3ccccc3)cc2-c2ccccc2)nc1C)=C\c1ccccc1`, in test [2], the IC50 was determined as 3.8 µM.
Take `C(=N\c1ccc(-c2cc(-c3ccccc3)nc3ccc4ccccc4c23)cc1)/c1ccccc1`: in test [1], the inhibition entry was “inactive”.
As to `C(=C\Nc1ccc(-c2ccccc2)cc1)/C=N/c1ccc(-c2ccccc2)cc1`, the inhibition result in test [1] is “inactive”. Further, the IC50 in test [2] amounted to 9.7 µM.
For `Cn1cc/c(=N\N=c2/ccn(C)c3ccccc23)c2ccccc21`, the inhibition entry in test [1] is “inactive”. The 50% inhibitory concentration (IC50) in test [2] was found to be 6.2 µM.
With `c1ccc(-c2sc(-c3ccccc3)c3c2C2CCC3C2)cc1`, in test [1], the inhibition result is “inactive”.
Regarding `Cc1ccc(-n2cc(-c3ccc(Cl)cc3)c3c2N=CN2N=C(c4cccs4)NC32)cc1` (stereo not drawn), the inhibition entry in test [1] was “inactive”.
With `Cc1nc(-n2nc(-c3ccccc3)cc2-c2ccccc2)sc1C(=O)/C=C/c1ccc([N+](=O)[O-])cc1`, in test [2], the IC50 was determined as 6 µM.
With `CCn1c2ccccc2c2cc(N)c(/N=N/c3ccc([N+](=O)[O-])cc3)cc21`, the inhibition result in test [1] was “inactive”. Further, in test [2], the IC50 was found to be 5 µM.
For the compound `C/C(=N\NC(=O)c1ccncc1)c1sc(-n2nc(-c3ccccc3)cc2-c2ccccc2)nc1C`, the inhibition entry in test [1] is “inactive”.
On to `CCN(CC)Cc1cc(Nc2c3ccccc3nc3c4ccccc4n(C)c23)ccc1O`, for which the inhibition entry in test [1] is “inactive”. In addition, in test [2], the IC50 was found to be 3.5 µM.
`C(=C\c1c[nH]c2ccccc12)/c1nccc2ccccc12`: the inhibition result in test [1] was “inactive”. The IC50 in test [2] stood at 1.8 µM.
Consider `N/N=c1\c2ccccc2c2ccc3c4ccccc4/c(=N\N)c3c12`, for which, in test [1], the inhibition entry was “inactive”.
